Earlier results on 1 compound are cited in patent publication US11528929B2, “Composition for treatment of overactive bladder” (priority 2019, dated 2022).

For this data set the following is noted: pH at 50% bound and 50% in free form.

For the compound `O=C(O)CC(O)C(=O)O` (stereo not shown) [malic acid], the “isoelectric pH (dissociation point)” value is 3.41.
